This is an account of results in US11034726B2, “Gene expression inhibitors” (PIVARIS BIOSCIENCE GMBH, priority 2017, dated 2021).

Ends that are not written are not given here.

The test system of experiment [1] is plasmid-encoded luciferase in HEK293 cells. Put plainly: Transient transfection of luciferase expression plasmid (CMV promoter) with peptide, luciferase in cell lysates. The following applies: for luciferase % of DMSO con-: peptide 2 μM, 24 hrs post-transfection, HEK293, relative to DMSO control; for inhibition of luciferase production (in words): peptide transfected with CMV-luciferase plasmid, HEK293, 24 hrs.

Experiment [2] relates to plasmid-encoded green fluorescence protein (GFP) in HEK293 cells. Briefly: Transfection of GFP expression plasmid, Western blot and GFP-positive cells. The experiment is classed as cell-based, human. Particulars: 2 μM. A general note: A western blot detects proteins with antibodies after separation by electrophoresis.
Experiment [3] concerns plasmid-encoded luciferase and neomycin resistance gene mRNA in HEK293 cells. Put plainly: Real-time PCR of luciferase (CMV promoter) and neomycin resistance gene (early SV40 promoter) mRNA from one plasmid. The experiment is classed as cell-based, human. Particulars: increasing concentration, 24 hrs, normalized against GAPDH. How it is done: HEK293 cells were transiently transfected in the presence of increasing concentrations of peptide I24 with an expression plasmid containing luciferase under control of the CMV promoter and the neomycin resistance gene under control of the early SV40 promoter. After 24 hrs, total RNA was isolated from the cells, digested with DNAse I to remove plasmid-DNA and subjected to reverse transcription. Quantitative real-time PCR analysis of luciferase and neomycin mRNA was performed using hydrolysis probes and normalized against GAPDH transcripts.
On the technique in general: Real-time PCR tracks product formation cycle by cycle.

Experiment [4] relates to plasmid-encoded luciferase in COS-7 cells. Put plainly: Transfection of CMV-luciferase plasmid in COS-7 cells, luciferase protein and mRNA. The class given is cell-based, African green monkey. How it is done: COS-7 African green monkey kidney cells were transfected with an expression plasmid driving luciferase under control of the CMV promoter and luciferase determined in cell lysates. For analysis of expression of luciferase mRNA, total RNA was isolated, treated with DNAse I and subjected to reverse transcription using random hexamers. Real-time PCR was performed with hydrolysis probes detecting luciferase and normalized to 18S rRNA transcript levels.
The cell lines African Green Monkey kidney cells CV-1 and COS-7, as well as the human breast cancer cell line MCF-7 and the human colon cancer cell lines HT-29 were transiently transfected with a plasmid containing luciferase under control of a CMV promoter and different concentrations of peptide I24.

The test system of experiment [5] is luciferase under control of the truncated interleukin-8 (IL-8) promoter in HEK293 cells. Briefly: Transfection of luciferase under truncated IL-8 promoter, TNF-α stimulation. The following applies: 24 hrs post-transfection, TNF-α 6 hrs after transfection. The experiment is classed as cell-based, human. The text has this:
(§1) HEK293 cells were transiently transfected with a construct containing the luciferase coding region under control of the truncated interleukin-8 (IL-8) promoter and peptide I24 and stimulated with tumor necrosis factor (TNF)-α 6 hrs after transfection and analysed 24 hrs post-transfection for expression of luciferase in cell lysates and released IL-8 in the supernatants by ELISA.

Experiment [6] deals with Escherichia coli. Briefly: Plasmid copy numbers and β-lactamase mRNA in transformed E. coli by real-time PCR. The following applies: normalized to E. coli single-copy gene. The experiment is classed as cell-based. How it is done: Competent Escherichia coli cells were transformed with a plasmid containing an ampicillin resistance gene and peptide I24. After indicated time-points, total plasmid numbers and β-lactamase mRNA levels were determined by real-time PCR normalized to an E. coli single-copy gene.

In experiment [7] the test system is plasmid-encoded luciferase in CV-1 cells. Put plainly: Transfection of CMV-luciferase plasmid in CV-1 cells. The class given is cell-based, African Green Monkey. The following applies: CV-1, different concentrations. The text has this:
(§2) The cell lines African Green Monkey kidney cells CV-1 and COS-7, as well as the human breast cancer cell line MCF-7 and the human colon cancer cell lines HT-29 were transiently transfected with a plasmid containing luciferase under control of a CMV promoter and different concentrations of peptide […].

Experiment [8] concerns baculovirus encoding luciferase under control of the CMV promoter. Put plainly: Baculovirus-mediated luciferase gene expression in HEK293 cells. The class given is cell-based. The following applies: HEK293 pretreated for 10 minutes. Here is the method:
A baculovirus was generated with the luciferase coding region under control of the CMV promoter integrated in its viral genome. The baculovirus was applied to HEK293 cells pretreated for 10 minutes with DMSO or increasing concentrations of peptide I24, TAT and the fusion peptide TAT-I24. Luciferase expression is reduced in cells treated with cell-permeable fusion peptide TAT-I24 in a dose-dependent manner (FIG. 7a). Baculovirus-infected cells incubated with DMSO, TAT-I24 or TAT were stimulated with TNF-α and total RNA isolated from cells. After treatment of the RNA with DNAse I, reverse transcription was performed. Luciferase and IL-8 mRNA were analysed by real-time PCR.

The test system of experiment [9] is endogenous interleukin-8 in HEK293 cells. Put plainly: Endogenous IL-8 release by ELISA in transfected, TNF-α-stimulated cells. The experiment is classed as cell-based, human. The following applies: 24 hrs post-transfection.
Source text: as §1
On the technique in general: ELISA stands for enzyme-linked immunosorbent assay.

For experiment [10], the system named is plasmid-encoded luciferase in HT-29 cells. Briefly: Transfection of CMV-luciferase plasmid in HT-29 cells. The experiment is classed as cell-based, human. The following applies: HT-29, different concentrations.
Source text: as §2

In experiment [11] the test system is Escherichia coli. Briefly: Colony formation of E. coli transformed with antibiotic resistance plasmid and peptide. The experiment is classed as cell-based. The source says: Competent Escherichia coli cells were transformed with a plasmid containing an ampicillin resistance gene or a kanamycin resistance gene and either DMSO as vehicle control or I24. On the next day, number of colonies was reduced in the presence of peptide I24 compared to the vehicle control (FIG. 11).

Experiment [12] deals with plasmid-encoded luciferase in MCF-7 cells. Put plainly: Transfection of CMV-luciferase plasmid in MCF-7 cells. The experiment is classed as cell-based, human. Particulars: MCF-7, different concentrations.
Source text: as §2

Experiment [13] concerns vaccinia virus. The class given is cell-based. The following applies: 24 hrs after infection, normalized to GAPDH.

CAAFYACFC [I24 M11]: in [1], the “luciferase % of DMSO con-” value is given as 32.2%.
The same measure, in the same setting: in the case of CLAFRACFC [I24 M27] it was 110.9%; in that of CLAFYAC [I24 M2], 110.1%; in that of CLAFYACFAC [I24 M5], 10.6%.
Turning to “CLAFYACFC (cysteine pairing not given here) [I24]”, the “GFP production by Western blot” value in [2] is “reduced”. Also, the “number of GFP-positive cells” value in [2] is listed as “reduced”. Moreover, the “reduction of luciferase transcripts (CMV promoter)” value in experiment [3] is 87%. Moreover, in experiment [3], the “reduction of neomycin mRNA levels (early SV40 promoter)” value was “about 50%”. Further, the “inhibition of the reporter gene luciferase” value in experiment [4] (COS-7, different concentrations) is “Inhibition of the reporter gene luciferase was observed”; in experiment [7], “Inhibition of the reporter gene luciferase was observed”; in experiment [10], “Inhibition of the reporter gene luciferase was observed”; in [12], “Inhibition of the reporter gene luciferase was observed”. The luciferase protein levels result in experiment [4] (COS-7, different incubation times) is reported as “downregulated”. The “luciferase mRNA levels” value in experiment [4] (COS-7, normalized to 18S rRNA, different incubation times) is “downregulated”. Also, the “TNF-α-induced luciferase expression (IL-8 promoter)” value in [5] is “reduced TNF-α-induced luciferase expression”. The plasmid copy numbers entry in [6] (4 and 6 hrs after transformation) was “downregulated”. In [6], the “β-lactamase mRNA levels” value is reported as “downregulated”. Besides, the “baculovirus-mediated luciferase expression (in words)” value in experiment [8] is recorded as “only weakly active”. The entries for the “inhibition of reporter gene expression” value in [1] (2 μM) and in [1] (20 μM) were “approximately 90%” and 90%, respectively. Further, the “luciferase % of DMSO con-” value in experiment [1] is 12.2%. Further, the “inhibition of luciferase production (in words)” value in experiment [1] is on record as “dose-dependent inhibition of luciferase production”. Also, in [9], the “release of IL-8 (ELISA)” value is reported as “not affected”. In addition, the “colony formation, peptide applied after transformation” value in [11] (applied after transformation is completed) was “inactive”. The number of colonies result in experiment [11] (peptide applied simultaneously with plasmid (ampicillin or kanamycin resistance gene)) is recorded as “reduced”.
With CLAFYACFCGGGCLAFYACFC [I24 dimer], in experiment [1], the “luciferase % of DMSO con-” value came out at 3.8%. Also, in experiment [1] (read-out: IC50 inhibition of plasmid-encoded luciferase levels, transfected together with the plasmid-DNA), the IC50 (usually the concentration needed to halve the response being measured) was 90 nM.
On to CLAFYACFWC [I24 M20], for which the “luciferase % of DMSO con-” value in [1] is on record as 5.6%.
Same read-out and setting: in the case of CLAFYACLWC [I24 M22] it was 6.8%.
Take CLAFYACRC [I24 M30]: in experiment [1], the “luciferase % of DMSO con-” value was determined as 116.5%.
Same read-out and setting: in the case of CLAFYARFC [I24 M29] it was 56.3%; in that of CLAFYCFAC [I24 M14], 63.2%; in that of CLAFYCFC [I24 M13], 64.9%.
The same measure, in the same setting: in the case of CLAFYRCFC [I24 M28] it was 93.4%.
Still for that read-out and setting: the figure for CLARYACFC [I24 M26] is 128.6%; for CLAYFCFC [I24 M16] it is 68.7%; for CLLYFCFC [I24 M17] it is 16.7%.
Regarding CLVFYACFC [I24 M12], the “luciferase % of DMSO con-” value in experiment [1] worked out at 11.8%.
Same read-out and setting: the figure for FYACFAC [I24 M10] is 104.2%.
On the same count and under the same terms, in the case of FYACFC [I24 M9] it was 103.6%; in that of FYCFAC [I24_M19], 118.6%.
Same read-out and setting: the figure for FYCFC [I24 M18] is 107.8%.
On to “GRKKRRQRRRPPQ [TAT, peptide representing the TAT tag alone, reference compound]”, for which the “inhibition of luciferase production (in words)” value in [1] was “inactive”. In addition, in experiment [13], the “rpo22 mRNA levels (in words)” value is on record as “no inhibition”.
On to SAFYACFAC [I24 M7], for which the “luciferase % of DMSO con-” value in [1] was 75.9%.
Same read-out and setting: the figure for SLAFYACFAC [I24 M6] is 41.9%; for SLAFYASFS [I24 M4] it is 100.5%.
Consider SVFYACFAC [I24_M8], for which the “activity in the cellular transfection assay (in words)” value in experiment [1] (2 μM) is listed as “no inhibitory effect”. For the same substance, the “luciferase % of DMSO con-” value in [1] came out at 103.7%.
As for SVFYACFC [I24 M31], the “luciferase % of DMSO con-” value in [1] amounted to 135.5%.
Consider WSEQCFTCWW [reference compound], for which the “activity in the cellular transfection assay (in words)” value in experiment [1] (2 μM) was “no inhibitory effect”. The “luciferase % of DMSO con-” value in experiment [1] is 106.2%.
